Drawing on PubChem BioAssay (NCI), this text covers TGI for five compounds.

The structures appear in SMILES notation.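 In this assay, cells in 96-well plates receive the compound at five concentrations for 48 hours. Endpoints are linearly interpolated between the surrounding concentrations. TGI marks complete inhibition of growth.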 A value given as a limit tells only on which side of the number the result lay.

Among the test systems are KM20L2 colon; RXF-631 renal; M19-MEL melanoma; DMS 273 small cell lung.
Holding throughout (assay): DTP human tumour cell line panel, 48 h

One may read the TGI as the concentration giving total growth inhibition. The low end stands for greater sensitivity of the cells, the high end for lower sensitivity of the cells. For `C=CCCCCCCCCCCCC1CCC(CC)N1` (stereo not given), the total growth inhibition concentration (TGI) was determined as 15.8 µM in the experiment with KM20L2 colon, 23.5 µM in the experiment with RXF-631 renal, 16.2 µM in the experiment with M19-MEL melanoma and 5.92 µM with DMS 273 small cell lung.

Consider `Cc1cc2c(CC(=O)O)[nH]nc2c(C(=O)O)c1C`, for which the TGI in the experiment on KM20L2 colon, with RXF-631 renal, in the experiment with M19-MEL melanoma and in the experiment with DMS 273 small cell lung was over 100 µM each time.

`Cc1nc2ccc(C(F)(F)F)cc2nc1Nc1ccc(Cl)c(Cl)c1`: the TGI turned out to be 13.2 µM in the experiment with KM20L2 colon, 20.1 µM in the experiment with RXF-631 renal, 24.4 µM with M19-MEL melanoma and 16.1 µM in the experiment with DMS 273 small cell lung.

As to `C=CCc1cc2cccc(OC)c2oc1=O`, the TGI with KM20L2 colon, with RXF-631 renal, in the experiment with M19-MEL melanoma and with DMS 273 small cell lung was over 100 µM in each case.

As for `CC(=O)O/N=C/c1ncccc1CO`, the TGI in the experiment on KM20L2 colon, with RXF-631 renal, with M19-MEL melanoma and in the experiment with DMS 273 small cell lung was over 100 µM in each case.
